Experiments:
[1] = tested on: humans; test: Clinical experience with sublingual apomorphine tablets in humans (efficacy, side effects)
[2] = clinical; conditions: human, in vivo; for Cmax: Mean
[3] = humans, 2 to 4 mg sublingual tablets, clinical experience

CN1CCc2cccc3c2[C@H]1Cc1ccc(O)c(O)c1-3 [Apomorphine, (R)-5,6,6a,7-tetrahydro-6-methyl-4H-dibenzo-[de,g]quinoline-10,11-diol]
incidence of emesis [1, 3]: 2%
incidence of nausea [1, 3]: about 13%
tolerability in humans ([1]; up to 8 mg of apomorphine tablets): well tolerated
side-effects in humans ([1]; up to a 6 mg dose via sublingual tablet): minimal side-effects
efficacy in humans ([1]; up to a 6 mg dose via sublingual tablet, sexual dysfunction): good efficacy
AUC(0-inf) ([2]; sc, 1 mg): 3.39 ng·h/mL
Tmax ([2]; sc, 1 mg): 20.4 min
Cmax ([2]; sc, 1 mg): 3.22 ng/mL
AUC(0-inf) ([2]; male, 2 mg): 1.23 ng·h/mL
Tmax ([2]; male, 2 mg): 44.4 min
cmax, Mean ([2]; male, 2 mg): 0.70 ng/mL
Cmax ([2]; male, 2 mg): ~0.7 ng/mL
AUC(0-inf) ([2]; male, 4 mg): 2.37 ng·h/mL
Tmax ([2]; male, 4 mg): 43.2 min
cmax, Mean ([2]; male, 4 mg): 1.25 ng/mL
Cmax ([2]; male, 4 mg): ~1.25 ng/mL
AUC(0-inf) ([2]; male, 5 mg): 2.92 ng·h/mL
Tmax ([2]; male, 5 mg): 40.8 min
cmax, Mean ([2]; male, 5 mg): 1.70 ng/mL
Cmax ([2]; male, 5 mg): ~1.7 ng/mL
AUC(0-inf) ([2]; male, 6 mg): 3.6 ng·h/mL
Tmax ([2]; male, 6 mg): 39.6 min
cmax, Mean ([2]; male, 6 mg): 1.91 ng/mL
Cmax ([2]; male, 6 mg): ~1.91 ng/mL

Source: patent US20020006933A1 (TAP Holdings, Inc., priority 2000, published 2002)
